The results in this text go back to patent publication US5843941A, “Ras farnesyl transferase inhibitors” (Genentech, Inc., priority 1994, dated 1998).

Entries after “also recorded” stand apart in the source; their conditions may differ.

In test [1] the test system is untransformed rat-1 fibroblasts. Description: Changes in morphology of untransformed cells. The note with it: FIG. 6E and F. The class given is cell-based. As to the method: Compound 27A (denoted as BG269A in the figure) and compound 27B (denoted as BG269B in the figure) were added at 250 μM to test whether these compounds would induce reversion to a more normal phenotype as had been previously shown with microinjection of anti-Ras antibodies (see Feramisco, J. R. et al Nature 314, 639 (1985)). The H-ras transformed cells, denoted as rat 2.2 cells, were generated by transfection of rat-1 fibroblasts as described (see Seeburg, P. H., Colby, W. W., Capon, D. J., Goeddel, D. V., and Levinson, A. D. Nature 312,71 (1984)). Cells that overgrew the monolayer were extracted and plated onto agar to obtain a cell line displaying a fully transformed phenotype. Untransformed rat-1 fibroblasts and src-transformed rat-1 fibroblasts were also treated. The src-transformed cells were generated by co-transfection of rat-1 fibroblasts with pSV3.Neo.src, a vector containing the gene for src as well as the gene that confers G418 resistance, both under control of SV40 early promoters. G418-resistant cell clones that diplayed a transformed phenotype were used to generate the cell line. On day 0, cells were plated in monolayer culture at 3×10^3 cells per well (24-well plates) in 1 ml DMEM supplemented with 10% FCS, 100 U/ml penicillin, 10 μg/ml streptomycin, 2% DMSO, and 0.5 mM DTT with and without 200 μM inhibitor. On day 3, the cells were refed with the same medium. […]

Another test addresses T1, Rab GG transferase (Rattus norvegicus, UniProt Q08602+Q08603).
T1 construct: purified Components A and B of Rab GG transferase; from tissue
T1 sequence (Q08602 1-567): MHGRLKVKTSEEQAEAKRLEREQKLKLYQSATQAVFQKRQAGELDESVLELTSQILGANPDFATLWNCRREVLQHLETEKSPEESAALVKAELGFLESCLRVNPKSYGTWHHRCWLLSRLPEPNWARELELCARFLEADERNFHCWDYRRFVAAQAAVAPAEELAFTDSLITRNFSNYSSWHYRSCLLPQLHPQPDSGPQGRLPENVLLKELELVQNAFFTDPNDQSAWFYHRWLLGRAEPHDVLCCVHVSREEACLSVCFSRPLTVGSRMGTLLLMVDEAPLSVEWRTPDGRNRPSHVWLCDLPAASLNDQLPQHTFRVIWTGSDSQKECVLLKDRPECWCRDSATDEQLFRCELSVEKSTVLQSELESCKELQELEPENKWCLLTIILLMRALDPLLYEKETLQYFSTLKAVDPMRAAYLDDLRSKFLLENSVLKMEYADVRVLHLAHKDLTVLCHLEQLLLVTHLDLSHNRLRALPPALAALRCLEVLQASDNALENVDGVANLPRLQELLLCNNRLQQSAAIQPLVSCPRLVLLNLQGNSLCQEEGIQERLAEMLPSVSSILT
T1 sequence (Q08603 1-331): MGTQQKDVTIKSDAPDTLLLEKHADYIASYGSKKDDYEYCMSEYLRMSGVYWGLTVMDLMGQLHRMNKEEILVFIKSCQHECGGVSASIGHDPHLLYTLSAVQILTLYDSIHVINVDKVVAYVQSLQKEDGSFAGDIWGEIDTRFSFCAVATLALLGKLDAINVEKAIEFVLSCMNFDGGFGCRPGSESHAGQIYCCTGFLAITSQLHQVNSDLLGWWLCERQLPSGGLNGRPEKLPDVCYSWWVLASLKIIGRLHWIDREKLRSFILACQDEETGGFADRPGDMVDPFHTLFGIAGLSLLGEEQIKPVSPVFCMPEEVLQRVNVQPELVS
Nature of the test: Inhibition of Rab GG transferase. Format: biochemical. The following applies: FIG. 1C; Rab1A substrate; read-out: IC0.5 Rab GG transferase.

The next test deals with MCF-231 cells. Nature of the test: Growth inhibition of human tumor line MCF-231. Format: cell-based. The following applies: MCF-231, breast (human), ras transformed, read-out: % growth inhib. As for the experimental part: (§1) To examine the effects of farnesyltransferase inhibition on cell growth, three cell lines (ras-transformed rat-1, src-transformed rat-1, and parental rat-1 cells) were seeded (see FIG. 7) at low density and allowed to grow for 10 days in the absence or presence of increasing concentrations of BZA-5B (compound 37). See Example 128 for description of cells. On day 0, cells were plated in monolayer culture at 2×10^3 cells per well (24-well plates) in 1 ml DMEM supplemented with 10% fetal calf serum, 100 U/ml penicillin, 100 μg/ml streptomycin, 0.5 mM DTT, 0.025% DMSO, and the indicated concentration of BZA-5B (compound 37). On days 3 and 7, cells were washed and refed with the same medium. At the time indicated in FIG. 7, cells were harvested by trypsinization and counted in a Coulter counter. Panels A, C, E show the growth rate of each cell line in the absence of inhibitor. Panels B, D, F show the inhibition of growth as a function of concentration of BZA-5B at each time point. […]
(§2) To examine the effects of farnesyltransferase inhibition on the growth of human tumor cell lines, several such lines were treated with 25 μM BZA-5B (compound 37B) using a procedure similar to that described in Example 129 above. Cells were refed with fresh media at days 3 and 6 containing the inhibitor, and were harvested and counted as described above. […]

A further test deals with HCT-116 cells. Description: Growth inhibition of human tumor line HCT-116. The class given is cell-based. The following applies: HCT-116, colon, ras transformed, read-out: % growth inhib. As for the experimental part:
as §1, §2

Test [2] has as its system HT 1080 human tumor cells in nude mouse. Nature of the test: Survival of nude mice after intraperitoneal implantation of HT 1080 human tumor cells. The class given is in vivo. The following applies: 20 mg/kg daily. As for the experimental part:
Implantation of […] HT 1080 cells in the peritoneal cavity of the nude mouse allows seeding and growth of tumor cell masses within the peritoneum. […] In this experiment, fourteen nude mice were injected on day 0 with […] HT 1080 cells via intraperitoneal injection. Half the animals (seven) immediately began receiving daily treatment with Compound 37B at 20 mg/kg (formulated in approx. 0.25 ml of 1% DMSO, 20% glycerol, 10 mM NaOAc, 130 mM NaCl, pH 4.5). The other seven animals received daily injection of the above vehicle alone.

The subject of another test is Hela cells. Description: Growth inhibition of human tumor line Hela. Format: cell-based. The following applies: cervix, not ras transformed, read-out: % growth inhib. As for the experimental part: as §1, §2

`CSCC[C@H](NC(=O)CN1C(=O)C(N(C)C(=O)[C@@H](N)CS)N=C(c2ccccc2)c2ccccc21)C(=O)O` (single isomer, unassigned) [27B]: in test [1], the “effect on morphology of untransformed cells” value is listed as “no apparent effect on the morphology of untransformed rat-1 fibroblasts”. Besides, the IC50 on Rab GG transferase came to 5.5 µM.
Take `COC(=O)[C@H](CCSC)NC(=O)CN1C(=O)C(N(C)C(=O)[C@@H](N)CS)N=C(c2ccccc2)c2ccccc21` (single isomer, unassigned) [37B]: the inhibition at 25 µM worked out at 58% with MCF-231 cells, 0% in the test with HCT-116 cells and 0% with Hela cells. In test [2] (over 25 days, FIG. 8), the “mortality / survival of mice with IP tumor” value is recorded as “caused a reduction in mortality over 25 days; also recorded: blocked the rapid mortality associated with IP implantation of tumor cells”. Moreover, the “tumor cell masses in the peritoneum at end of treatment” value in test [2] (dissection of all treated animals) was “all of the treated animals showed the presence of tumor cell masses in the peritoneum”.
